Assay results published in patent US7880007B2, “Bicyclic substituted phenyl piperidine modulators of muscarinic receptors” (Vertex Pharmaceuticals Incorporated, priority 2004, dated 2011).

Assays:
Type in all cases: cell-based
M3 muscarinic receptor = biological target: T1, M3 muscarinic receptor (Homo sapiens, UniProt P20309); experiment: Functional mobilization of intracellular calcium (FLIPR), M3-CHO cells; conditions: for M3 Activity: M3-CHO cells, calcium mobilization (FLIPR)
T1 construct: expressed in transfected cells; host or cells: CHO (M3-CHO)
T1 sequence (P20309 whole entry): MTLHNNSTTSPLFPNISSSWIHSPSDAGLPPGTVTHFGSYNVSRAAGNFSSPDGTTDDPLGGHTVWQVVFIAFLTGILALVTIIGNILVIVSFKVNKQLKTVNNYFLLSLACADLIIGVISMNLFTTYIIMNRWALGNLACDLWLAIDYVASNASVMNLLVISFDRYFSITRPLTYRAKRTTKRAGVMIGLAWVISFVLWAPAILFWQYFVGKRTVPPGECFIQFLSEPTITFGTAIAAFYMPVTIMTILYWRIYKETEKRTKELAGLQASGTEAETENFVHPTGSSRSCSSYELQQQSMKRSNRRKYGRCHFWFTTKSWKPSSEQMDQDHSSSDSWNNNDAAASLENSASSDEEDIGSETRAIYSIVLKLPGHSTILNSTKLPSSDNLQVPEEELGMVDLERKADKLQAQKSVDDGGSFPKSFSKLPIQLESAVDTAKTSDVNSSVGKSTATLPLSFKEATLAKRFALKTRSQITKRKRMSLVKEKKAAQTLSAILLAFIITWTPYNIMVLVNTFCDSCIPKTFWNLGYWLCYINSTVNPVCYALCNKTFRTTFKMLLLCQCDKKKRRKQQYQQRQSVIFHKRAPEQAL
Method in brief: (§1)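 FLIPR fluorescence (ex 488, em 540 nm) recorded 60 sec after compound addition to dye-loaded CHO cells. Agonist mode: compound alone. Antagonist mode: 15 min compound pre-incubation, then carbachol at EC80, or co-application. Efficacy expressed as % of maximal carbachol response.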

M1 muscarinic receptor = biological target: T2, M1 muscarinic receptor (Homo sapiens, UniProt P11229); experiment: Functional mobilization of intracellular calcium (FLIPR), M1-CHO cells; conditions: for M1 Activity: M1-CHO cells, calcium mobilization (FLIPR)
T2 construct: expressed in transfected cells; host or cells: CHO (M1-CHO)
T2 sequence (P11229 1-460): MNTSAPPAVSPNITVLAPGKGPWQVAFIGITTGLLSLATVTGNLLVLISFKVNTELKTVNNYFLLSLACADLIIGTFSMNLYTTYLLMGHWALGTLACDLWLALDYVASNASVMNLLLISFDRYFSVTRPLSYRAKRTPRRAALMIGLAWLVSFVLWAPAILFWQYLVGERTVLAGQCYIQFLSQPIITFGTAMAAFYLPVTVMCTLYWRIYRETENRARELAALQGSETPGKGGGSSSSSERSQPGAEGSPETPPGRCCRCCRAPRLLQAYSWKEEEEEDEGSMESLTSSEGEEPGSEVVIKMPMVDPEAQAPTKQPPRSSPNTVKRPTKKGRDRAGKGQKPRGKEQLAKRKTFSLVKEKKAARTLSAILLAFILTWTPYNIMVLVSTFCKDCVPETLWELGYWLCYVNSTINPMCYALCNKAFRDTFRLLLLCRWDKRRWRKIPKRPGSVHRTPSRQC
Method in brief: as §1

M2 muscarinic receptor = biological target: T3, M2 muscarinic receptor (Homo sapiens, UniProt P08172); experiment: Functional mobilization of intracellular calcium (FLIPR), M2-CHO cells; conditions: for M2 Activity: M2-CHO cells, calcium mobilization (FLIPR)
T3 construct: expressed in transfected cells; host or cells: CHO (M2-CHO)
T3 sequence (P08172 1-466): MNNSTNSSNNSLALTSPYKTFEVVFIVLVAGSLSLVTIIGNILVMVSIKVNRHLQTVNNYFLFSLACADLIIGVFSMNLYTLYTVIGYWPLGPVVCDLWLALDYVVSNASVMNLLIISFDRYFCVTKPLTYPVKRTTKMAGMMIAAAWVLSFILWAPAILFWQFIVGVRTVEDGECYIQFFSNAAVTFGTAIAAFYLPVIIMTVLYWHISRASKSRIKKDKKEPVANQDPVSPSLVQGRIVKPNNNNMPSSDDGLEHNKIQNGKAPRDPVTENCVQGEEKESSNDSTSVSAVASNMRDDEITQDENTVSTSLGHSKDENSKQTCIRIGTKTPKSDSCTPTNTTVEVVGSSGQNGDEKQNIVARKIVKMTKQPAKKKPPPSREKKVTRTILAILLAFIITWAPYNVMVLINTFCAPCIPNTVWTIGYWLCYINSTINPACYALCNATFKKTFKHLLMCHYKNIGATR
Method in brief: as §1

M4 muscarinic receptor = biological target: T4, M4 muscarinic receptor (Homo sapiens, UniProt P08173); experiment: Functional mobilization of intracellular calcium (FLIPR), M4-CHO cells; conditions: for M4 Activity: M4-CHO cells, calcium mobilization (FLIPR)
T4 construct: expressed in transfected cells; host or cells: CHO (M4-CHO)
T4 sequence (P08173 1-479): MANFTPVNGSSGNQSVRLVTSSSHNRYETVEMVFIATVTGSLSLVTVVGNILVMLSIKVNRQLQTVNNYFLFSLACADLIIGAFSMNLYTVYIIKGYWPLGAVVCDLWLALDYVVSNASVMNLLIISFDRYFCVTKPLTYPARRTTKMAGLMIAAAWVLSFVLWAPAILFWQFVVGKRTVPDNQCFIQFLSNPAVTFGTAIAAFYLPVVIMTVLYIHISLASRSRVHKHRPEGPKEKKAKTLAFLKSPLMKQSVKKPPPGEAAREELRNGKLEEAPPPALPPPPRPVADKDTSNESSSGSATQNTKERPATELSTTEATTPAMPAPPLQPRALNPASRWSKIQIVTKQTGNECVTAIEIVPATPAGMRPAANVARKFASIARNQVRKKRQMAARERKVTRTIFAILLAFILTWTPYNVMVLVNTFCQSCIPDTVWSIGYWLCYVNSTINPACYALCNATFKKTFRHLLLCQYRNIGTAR
Method in brief: as §1

[1] = 100% efficacy = maximum response obtained with the Carbachol control

SMILES	Emax (M3 muscarinic receptor; [1])	M3 Activity (M3 muscarinic receptor)	Emax (M1 muscarinic receptor; [1])	M1 Activity (M1 muscarinic receptor)	Emax (M2 muscarinic receptor; [1])	M2 Activity (M2 muscarinic receptor)	Emax (M4 muscarinic receptor; [1])	M4 Activity (M4 muscarinic receptor)	M3 Efficacy (M3 muscarinic receptor; [1])	M1 Efficacy (M1 muscarinic receptor; [1])	M2 Efficacy (M2 muscarinic receptor; [1])	M4 Efficacy (M4 muscarinic receptor; [1])
COc1ccc(C(=O)c2ccccc2)cc1C1CCN([C@H]2C[C@H]3CC[C@H]2C3)CC1 [Compound 50]	< 25%	+ (activity was measured to be greater than 5.0 μM)	25 to 100%	+ (activity was measured to be greater than 5.0 μM)	< 25%	+ (activity was measured to be greater than 5.0 μM)	25 to 100%	++ (activity was measured to be from 1.0 μM to 5.0 μM)				
COc1ccc(C)cc1C1CCN(C2C[C@H]3CC[C@H]2C3)CC1 (stereo partly drawn) [Compound 51]	< 25%	+ (activity was measured to be greater than 5.0 μM)	25 to 100%	++ (activity was measured to be from 1.0 μM to 5.0 μM)	25 to 100%	+ (activity was measured to be greater than 5.0 μM)	25 to 100%	+++ (activity was measured to be less than 1.0 μM)				
COc1ccc(-c2ccc3c(c2)OCO3)cc1C1CCN(C2CCOCC2)CC1 [Compound 52]	< 25%	+ (activity was measured to be greater than 5.0 μM)	< 25%	+ (activity was measured to be greater than 5.0 μM)	< 25%	+ (activity was measured to be greater than 5.0 μM)	25 to 100%	+ (activity was measured to be greater than 5.0 μM)				
COc1ccc(Cl)cc1C1CCN(C2CCC(=NOC3CCCCO3)CC2)CC1 (stereo not drawn) [Compound 54]		+ (activity was measured to be greater than 5.0 μM)		++ (activity was measured to be from 1.0 μM to 5.0 μM)		+ (activity was measured to be greater than 5.0 μM)		+++ (activity was measured to be less than 1.0 μM)	+ (efficacy was calculated to be less than 25%)	++ (efficacy was calculated to be from 100% to 25%)	+ (efficacy was calculated to be less than 25%)	++ (efficacy was calculated to be from 100% to 25%)
COc1ccc(C(=O)COc2ccccc2C2CCN([C@H]3C[C@H]4CC[C@H]3C4)CC2)cc1 [Compound 57]	< 25%	+ (activity was measured to be greater than 5.0 μM)	25 to 100%	++ (activity was measured to be from 1.0 μM to 5.0 μM)	25 to 100%	++ (activity was measured to be from 1.0 μM to 5.0 μM)	25 to 100%	++ (activity was measured to be from 1.0 μM to 5.0 μM)				
COc1ccc(F)cc1C1(F)CCN(C2CCCCC2)CC1 [Compound 59]	< 25%	+ (activity was measured to be greater than 5.0 μM)	25 to 100%	+ (activity was measured to be greater than 5.0 μM)	< 25%	+ (activity was measured to be greater than 5.0 μM)	25 to 100%	++ (activity was measured to be from 1.0 μM to 5.0 μM)				
COc1ccc(F)cc1C1(O)CCN(C[C@@H]2C[C@H]3C=C[C@H]2C3)CC1 [Compound 60]	< 25%	+ (activity was measured to be greater than 5.0 μM)	< 25%	+ (activity was measured to be greater than 5.0 μM)	< 25%	+ (activity was measured to be greater than 5.0 μM)	25 to 100%	++ (activity was measured to be from 1.0 μM to 5.0 μM)				
Cc1ccc(C)c(C2(O)CCN(CC3CC4C=CC3C4)CC2)c1 (stereo not drawn) [Compound 62, 1-((bicyclo[2.2.1]hept-5-en-2-yl)methyl)-4-(2,5-dimethylphenyl)piperidin-4-ol]		+ (activity was measured to be greater than 5.0 μM)	25 to 100%	++ (activity was measured to be from 1.0 μM to 5.0 μM)	< 25%	+ (activity was measured to be greater than 5.0 μM)	25 to 100%	++ (activity was measured to be from 1.0 μM to 5.0 μM)				
CCOC(=O)N1CCC(CN2CCC(c3cc(F)cc(F)c3OC)CC2)CC1 [Compound 65]	< 25%	+ (activity was measured to be greater than 5.0 μM)	25 to 100%	+++ (activity was measured to be less than 1.0 μM)	< 25%	+ (activity was measured to be greater than 5.0 μM)	25 to 100%	+++ (activity was measured to be less than 1.0 μM)				
COc1ccccc1C1CCN(C2CCCS(=O)(=O)CC2)CC1 (stereo not drawn) [Compound 66]	< 25%	+ (activity was measured to be greater than 5.0 μM)	25 to 100%	+ (activity was measured to be greater than 5.0 μM)	< 25%	+ (activity was measured to be greater than 5.0 μM)	25 to 100%	++ (activity was measured to be from 1.0 μM to 5.0 μM)				
COc1ccc(-c2ccccc2C)cc1C1CCN([C@@H]2C[C@H]3CC[C@H]2C3)CC1 [Compound 67]	< 25%	+ (activity was measured to be greater than 5.0 μM)	< 25%	+ (activity was measured to be greater than 5.0 μM)	< 25%	+ (activity was measured to be greater than 5.0 μM)	25 to 100%	+ (activity was measured to be greater than 5.0 μM)				
CCOc1ccccc1C1CCN([C@H]2C[C@H]3CC[C@H]2C3)CC1 [Compound 68]	< 25%	+ (activity was measured to be greater than 5.0 μM)	25 to 100%	++ (activity was measured to be from 1.0 μM to 5.0 μM)	< 25%	+ (activity was measured to be greater than 5.0 μM)	25 to 100%	+++ (activity was measured to be less than 1.0 μM)				
COc1cccc(-c2ccc(OC)c(C3CCN([C@@H]4C[C@H]5CC[C@H]4C5)CC3)c2)c1 [Compound 69]	< 25%	+ (activity was measured to be greater than 5.0 μM)	< 25%	+ (activity was measured to be greater than 5.0 μM)	< 25%	+ (activity was measured to be greater than 5.0 μM)	25 to 100%	+ (activity was measured to be greater than 5.0 μM)				
FC(F)(F)Oc1ccccc1C1CCN(C2CCOCC2)CC1 [Compound 70]	< 25%	+ (activity was measured to be greater than 5.0 μM)	25 to 100%	+ (activity was measured to be greater than 5.0 μM)	< 25%	+ (activity was measured to be greater than 5.0 μM)	25 to 100%	++ (activity was measured to be from 1.0 μM to 5.0 μM)				
